Experimental data from patent publication US10004775B2, “Inhibition of hypoxia-inducible factor activity with carica papaya extracts” (The Regents of the University of California, priority 2013, dated 2018).

Assays:
[1] = tested on: Saos-2 cells; assay: MTT assay of cell viability after 24 h treatment in normoxic or hypoxic conditions; type: cell-based, human; details: FIG. 1A
Protocol: The leaves were washed with distilled water and left to air-dry at room temperature or in an oven at 40° C. until a constant weight was obtained. Dried leaves were then blended into a powder form, soaked and extracted in methanol at a 1:3 ratio (w/v) for three days at room temperature. Extracts were filtered by Whatman No. 1 filter paper with the aid of a vacuum pump. The residues were re-extracted twice using the same methanolic method. Filtrates were then concentrated by rotary evaporator at a maximum of 40° C. Concentrated extracts were collected in glass vials with push-in caps and dried in an oven at 40° C. until a constant weight was obtained. All of the crude extracts were stored −80° C. […] These concentrations were determined empirically and selected to cover a range of effects, ranging from no effect to significant cytotoxicity. […] After a further 4 h of incubation in 5% CO2 at 37° C., formazan precipitates that formed were dissolved with 100 μl of DMSO and the reaction was read in a microplate reader (Model 550, BioRad, Hercules, Calif.) at 570 nm absorbance and 630 nm as the reference wavelength.

[2] = tested on: HIF; assay: HIF reporter assay (hypoxia-driven firefly luciferase reporter); type: cell-based, human; details: cisplatin 0.1 mM; hypoxic HRE-luc Saos2 cells
Protocol: A human osteosarcoma cell line, Saos-2 stably expressing four copies of the erythropoietin hypoxia response elements (HRE-luc Saos2; […] et al., Malaysian Patent Application #: PI 2012003492), was cultured in DMEM medium (PAA, USA) supplemented with 10% (v/v) fetal bovine serum (FBS; PAA, USA) and 1% (v/v) antibiotic-antimycotic (PAA, USA) in a humidified incubator supplied with ambient oxygen and 5% CO2 at 37° C. An hypoxic gaseous environment was created by incubating cells in a ProOx in vitro chamber (BioSpherix), controlled by ProOx model 110 (BioSpherix). The cells were supplied 0.5% O2, 94.5% N2 and 5% CO2 at 37° C. Cells were co-transfected with a hypoxia-driven firefly luciferase reporter plasmid construct containing four copies of the erythropoietin (EPO) hypoxia response elements (HRE) and a pRL-CMV expressing Renilla luciferase as described previously (Kaluz et al., 2008, […] et al., 2009, […] et al. Malaysian Patent Application No. PI 2012003492). Transfected cells were treated with appropriate concentrations of plant extracts and incubated in either normoxic or hypoxic conditions. After 24 h, firefly and Renilla luciferase signal intensities were measured (Kaluz et al., 2008, […] et al, 2009). Percent HIF inhibition was calculated as a ratio of the difference between untreated and plant extract-treated sample to the untreated sample. […]

Row | Compound | IC50 in hypoxia compared with normoxia, in words [1] | percent HIF inhibition [2]
1 | CN1C(=O)[C@]2(Cc3cn([C@]45C[C@@]67SS[C@@](CO)(C(=O)N6[C@H]4Nc4ccccc45)N(C)C7=O)c4ccccc34)SS[C@@]1(CO)C(=O)N2C [chetomin] | increased in hypoxia | 
2 | N.N.[Cl][Pt][Cl] [cisplatin] | significantly higher than in normoxia | around 60%
